Measurements from patent US20260183411A1, “TARGETING SORTILIN” (priority 2024, published 2026).
Where a SMILES comes first, the peptide text is derived from it.

Key:
[1] = Murine hematotoxicity assay; type: in vivo, mouse; details: 3 mg/kg i.v. QW×4, BALB/c mice
Procedure: (§1) Murine hematotoxicity experiments were conducted at Charles River Laboratories and the care and use of animals was conducted in accordance with the regulations of the Association for Assessment and Accreditation of Laboratory Animal Care (AAALAC). Wild type BALB/c, female, 7-8 weeks, weighing approximately 18-22 g were randomized and dosed intravenously with control or test articles at a QW×4 schedule. Dosing volume was adjusted based on body weight and was administered at 10 mL/Kg. PDCs were dissolved in 25 mM Histidine 10% sucrose pH 7 and 3 mg/kg was administered. Free MMAE payload was also tested, and similarly dissolved in 25 mM Histidine 10% sucrose pH 7 and administered to the mice at a dose of […] by i.v. injection at a QW×4 schedule. 3 days following each dose, 150 μL of whole blood was collected via submandibular method and placed in K2 EDTA tubes stored on ice. Blood neutrophil counts were performed on the day of collection by IDEXX labs. Body weights were recorded twice a week until study endpoint.
as §1, with “As outlined in the material” for “Murine hematotoxicity experiments were conducted at Charles River Laboratories”, “methods” for “the care and use”, “Example 1, wild” for “animals was conducted in accordance with the regulations of the Association for Assessment and Accreditation of Laboratory Animal Care (AAALAC). Wild”, “PDCs were dissolved in 25 mM Histidine 10% sucrose pH 7 and 3 mg/kg was administered.” left out

[2] = Murine plasma stability assay; type: in vitro ADME; details: mouse, 2 μM, 37° C., read-out: Murine plasma stability assay, T1/2
Procedure: Frozen plasma was thawed at 37° C. and centrifuged at 4000 rpm to remove any clots and transferred to 96-well reaction plates by WuXi AppTec. Test compounds were added to the reaction plate at a final concentration of 2 μM and either stopped immediately or incubated at 37° C. for 5 minutes, 10 minutes, 30 minutes, 60 minutes, or 120 minutes. At the end of incubation, stop solution consisting of 200 ng/mL tolbutamide and 200 ng/mL labetalol in ACN was added to precipitate protein and mixed thoroughly. Samples were then transferred to a bioanalysis plate and shaken for 10 minutes prior to HPLC-MS/MS analysis of percent remaining compound.
Table 14 tabulates the plasma stability for each of the three PDCs tested.

MDA-MB-231 xenograft = test: MDA-MB-231 murine xenograft efficacy model; type: in vivo, mouse
Procedure: Murine xenograft experiments were conducted at WuXi AppTec and/or Charles River Laboratories and the care and use of animals was conducted in accordance with the regulations of the Association for Assessment and Accreditation of Laboratory Animal Care (AAALAC). MDA-MB-231 tumor cells (ATCC, Manassas, VA, cat #HTB-26) were grown and maintained in L15 medium supplemented with 10% heat inactivated fetal bovine serum, 1% Antibiotic-Antimycotic, and L-glutamine (2 mM) at 37° C. in an atmosphere in 5% CO2, 95% air. BALB/c Nude, female, 6-8 weeks, weighing approximately 18-22 g were purchased from Vital River Laboratory Animal Technology Co., LTD. Mice were inoculated subcutaneously at the right flank with MDA-MB-231 tumor cells (e.g., triple negative breast cancer cells) (10×10^6) in 0.2 mL of PBS with Matrigel (1:1) for tumor development. Animals were randomized and treatment was started when the average tumor volume reached approximately 150-200 mm^3 for the efficacy study. Dosing volume was adjusted based on body weight and was administered at 10 mL/Kg. […] Free MMAE payload was also tested, and similarly dissolved in 25 mM Histidine 10% sucrose pH 7 and one or more of the following doses, 0.6, 0.06 mg/kg, were administered to the mice i.v. at a QW×4 schedule. Tumor sizes were measured twice weekly in two dimensions using a caliper, and the volume in mm^3 calculated using the formula: V=0.5 a×b^2, where a and b are the long and short diameters of the tumor, respectively. TGI was calculated for each group using the formula: TGI (%)=[1−(Ti−T0)/(Vi−V0)]×100; where Ti is the average tumor volume of a treatment group on a given day, TO is the average tumor volume of the treatment group on the first day of treatment, Vi is the average tumor volume of the vehicle control group on the same day with Ti, and V0 is the average tumor volume of the vehicle group on the first day of treatment.
To characterize the effects of the MMAE payload alone, we included free MMAE at molar equivalency to PDCs, and tested at 0.6 and 0.06 mg/kg, as separate arms.
To characterize the effects of the MMAE payload alone, we included free MMAE at molar equivalency to PDCs, and tested at 0.6 mg/kg.

Cyno SORT1 = test: SPR binding, Cyno SORT1; details: unconjugated peptide w/conjugation handles
Procedure: SPR analysis was performed on Series S CM5 chips (Cytiva) using a Biacore 8K instrument (Cytiva). Sensorgrams were double-referenced by subtracting the response on both a reference flow cell and a blank sample. Human SORT1 (78-755)-His (Acrobiosystems), human SORT1 (78-755)-His(GenScript), mouse SORT1 (76-753)-His (R&D Systems), rat SORT1 (76-752)-His (GenScript), and cyno SORT1 (76-753)-His (GenScript) were diluted to 20-60 μg/mL in 10 mM sodium acetate pH 4.5 buffer and immobilized onto Series S CM5 chips using amine coupling at a flow rate of 10 μL/min for 45-100 s.
For the single-cycle kinetics analysis runs, a running buffer of 1×PBS pH 7.4, 0.005% Tween-20 was used. Ten start-up cycles and a blank cycle preceded each analysis run. […] The kinetic rate constants (ka and kd) and the equilibrium binding constant (Kd) were calculated using a 1:1 kinetic binding model on the Biacore Insight Evaluation Software (Cytiva).
SPR analysis was performed on Series S CM5 chips (Cytiva) using a Biacore 8K instrument (Cytiva). […] The kinetic rate constants (ka and […]) and the equilibrium binding constant (Kd) were calculated using a 1:1 kinetic binding model on the Biacore Insight Evaluation Software (Cytiva). […] The SORT1 affinities of the conjugates were determined to be peptide 2 conjugate >peptide 1 conjugate >peptide 3 conjugate.

GAPDH mRNA [3] = test: GAPDH mRNA knockdown in differentiated Neuro-2a cells (RT-qPCR); type: cell-based
Procedure: (§2) These GAPDH siRNA-peptide conjugates were then evaluated in HEK293 cells and the neuronal cell line, neuro2A.

GAPDH mRNA [4] = test: GAPDH mRNA knockdown in HEK293 cells (RT-qPCR); type: cell-based
Procedure: as §2

Molecule: CCCC[C@@H]1NC(=O)[C@H](CCCNC(=N)N)NC(=O)[C@H](CCCCNC(=O)CN(C)C(=O)CN(C)C(=O)CN(C)C(=O)CN(C)C(=O)CCNC(=O)CCCC(=O)N[C@H](C(=O)N[C@@H](CCCNC(N)=O)C(=O)Nc2ccc(COC(=O)N(C)[C@H](C(=O)N[C@H](C(=O)N(C)[C@@H]([C@@H](C)CC)[C@@H](CC(=O)N3CCC[C@H]3[C@H](OC)[C@@H](C)C(=O)N[C@H](C)[C@@H](O)c3ccccc3)OC)C(C)C)C(C)C)cc2)C(C)C)NC(=O)[C@H](CC(N)=O)NC(=O)[C@H](CCC(=O)O)NC(=O)[C@@H](NC(=O)[C@H](Cc2c[nH]c3ccccc23)NC(=O)[C@H](CCCNC(=N)N)NC(C)=O)CSSC[C@@H](C(=O)N[C@@H](CCCNC(=N)N)C(=O)N[C@@H](CCC(N)=O)C(=O)N[C@H](C(=O)N[C@@H](CC(C)(C)C)C(=O)O)C(C)(C)C)NC(=O)[C@H]([C@@H](C)O)NC(=O)[C@H](Cc2ccccc2)NC1=O [Arb_cyclic_G23-PDC]
- blood neutrophil counts compared to vehicle or MMAE treatment [1]: reduced neutrophil counts
- half-life [2]: 57.4 min
- tumor growth inhibited relative to vehicle (MDA-MB-231 xenograft; 3 mg/kg i.v. QW×4, day 22): 68%
- body weight loss (Example 8) (MDA-MB-231 xenograft; PDCs 3 mg/kg, free MMAE at molar equivalency (0.6 mg/kg)): body weight loss tracked each other

Molecule: CC(C)C[C@H](NC(=O)[C@H](C)NC(=O)[C@@H]1CCCN1C(=O)[C@H](CC(=O)O)NC(=O)[C@H](CCCNC(=N)N)NC(=O)[C@H](CC(C)C)NC(=O)[C@@H]1CCCN1C(=O)[C@H](C)NC(=O)[C@H](CC(=O)O)NC(=O)[C@H](Cc1c[nH]c2ccccc12)NC(=O)[C@H](CCCNC(=N)N)NC(=O)[C@@H]1CCCN1C(=O)[C@H](C)N)C(=O)N[C@@H](CCCNC(=N)N)C(=O)N[C@@H](CCC(N)=O)C(=O)N[C@H](C(=O)N[C@@H](CC1CCC1)C(=O)O)C(C)(C)C [SORT1 peptide 2]
- Cyno Ka Kd (Cyno SORT1): 0.152 nM

Molecule: CCCC[C@@H]1NC(=O)[C@H](CCCNC(=N)N)NC(=O)[C@H](CCCCN)NC(=O)[C@H](CC(N)=O)NC(=O)[C@H](CCC(=O)O)NC(=O)[C@@H](NC(=O)[C@H](Cc2c[nH]c3ccccc23)NC(=O)[C@H](CCCNC(=N)N)NC(C)=O)CSSC[C@@H](C(=O)N[C@@H](CCCNC(=N)N)C(=O)N[C@@H](CCC(N)=O)C(=O)N[C@H](C(=O)N[C@@H](CC(C)(C)C)C(=O)O)C(C)(C)C)NC(=O)[C@H]([C@@H](C)O)NC(=O)[C@H](Cc2ccccc2)NC1=O [SORT1 peptide 3] (HELM PEPTIDE1{[ac].R.W.C.E.N.K.R.[Nle].F.T.C.R.Q.[CC(C)(C)[C@H](N[*:1])C(=O)[*:2]].[CC(C)(C)C[C@H](N[*:1])C(=O)O]}$PEPTIDE1,PEPTIDE1,4:R3-12:R3$$$V2.0; N-terminus and C-terminus assumed)
- Cyno Ka Kd (Cyno SORT1): 0.191 nM

Molecule: Ac-C(bAla)(Sar)(Sar)(Sar)(Sar)APRWDAPLRDPALRQ(B13)(G48) (CXXXXXAPRWDAPLRDPALRQXX; N-methyl; non-natural residues; cyclised or stapled) [Peptide 2-GAPDH6-SPDP]
- GAPDH mRNA % knockdown compared to untreated cells (GAPDH mRNA [3]; Neuro2a + CQ): 0%
- GAPDH mRNA % knockdown compared to untreated cells (GAPDH mRNA [3]; Neuro2a − CQ): 3%
- GAPDH mRNA % knockdown compared to untreated cells (GAPDH mRNA [4]; HEK293 + CQ): 80%
- GAPDH mRNA % knockdown compared to untreated cells (GAPDH mRNA [4]; HEK293 − CQ (chloroquine)): 0%
